According to PubChem BioAssay AID493130 (Broad Institute, 2011):
Inconclusive results are not listed. Active and inactive are the calls of the source.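 How the source made its calls: active means signal-lowering compounds whose fitted half-maximal concentration is at most ten times their highest tested dose; inconclusive means flat fit between -30 and -70%, or poor fit; inactive means flat within 30%, signal rising, or potency beyond limit.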

Each molecule was assayed against POS-1 (Caenorhabditis elegans) binding to mex-3 RNA (assay: C. elegans POS-1 RNA interaction disruptors – biochemical, fluorescence polarization, cherry-picked samples, set 2, counter-screen for MEX-5 RNA-binding inhibitor project, dose response (AID 493130;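 further: POS-1 as maltose binding protein fusion made in E. coli with FITC RNA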)). Conditions: POS-1/mex-3 RNA fluorescence polarization, 1 h.

Row | SMILES | AC50
1 | O=c1nc2c(O)cccn2c2c1c(=O)[nH]c1ccccc12 | 2.46 µM
2 | Cc1[nH][nH]c(=O)c1C(c1ccc(O)c([N+](=O)[O-])c1)c1c(C)[nH][nH]c1=O | 7.84 µM
3 | Cc1cc(=O)n2[nH]c(=O)c(N=Nc3ccccc3)c2[nH]1 | 0.306 µM
4 | Cc1ccc(O)c(C(=O)c2cc(C#N)c(=O)n(-c3nccs3)c2)c1 | 4.09 µM
5 | CC1=C(C#N)C(=O)N(C2CCS(=O)(=O)C2)C(=O)/C1=C\c1ccco1 (configuration not stated) | 3.66 µM
6 | CCCC1C2CN(C(C)C)CC=C2C(C#N)=C(N)C1(C#N)C#N (configuration not stated) | 1.81 µM
7 | O=C(N/N=C/c1c(O)n(C2CC2)c(=S)[nH]c1=O)c1ccccc1O | 6.64 µM
8 | Cc1occc1C(=O)N/N=C/C1=C(N2CCOCC2)C(=C\c2ccc(Cl)cc2Cl)/CC1 | 8.21 µM
9 | Cc1cc(C(=O)NNC(=O)CCCCC(=O)NNC(=O)c2cc(C)[nH]n2)n[nH]1 | > 10 µM (inactive)
10 | CCCCOc1ccc2c(c1)/C(=C(\C(Cl)=C(Cl)Cl)[N+](=O)[O-])N2 | 8.54 µM
11 | O=C1c2ccccc2C(=O)N1/N=C/c1ccc(O)c(O)c1O | 2.31 µM
12 | Brc1ccc(C2=CC(c3cccs3)n3ncnc3N2)cc1 (configuration not stated) | 1.4 µM

Same assay, conditions: POS-1/mex-3 RNA fluorescence polarization, 1 h; at 10 µM (top of the series)

Row | SMILES | activity change, negative = inhibition
13 | N#C/C(=C\c1cccc([N+](=O)[O-])c1)c1nnc2n1CCCCC2 | inactive
14 | Cc1cccc(C(=O)NNC(=O)c2ccco2)c1O | inactive
15 | COC(=O)COc1ccc2c(c1)O/C(=C\c1cccc([N+](=O)[O-])c1)C2=O | inactive
16 | COc1cc(/C=N/NC(=O)c2ccc(=O)[nH]n2)ccc1O | inactive
17 | Cc1ccc(C(=O)N/C(=C\c2ccc(-c3ccc([N+](=O)[O-])cc3)o2)C(=O)NC2CCS(=O)(=O)C2)cc1 (configuration not stated) | inactive
18 | CCOC(=O)CNc1nc2ccccc2n2c(C)nnc12 | inactive
19 | O=C(O)CC1S/C(=N/N=C/c2ccc(-c3ccccc3[N+](=O)[O-])o2)NC1=O (configuration not stated) | inactive
20 | COC(=O)c1cc(NC(=O)c2ccccc2)c(=O)oc1C | inactive
21 | CC(C)=CCc1c(O)cc(O)c2c(=O)c(O[C@@H]3O[C@@H](C)[C@H](O)[C@@H](O)[C@H]3O)c(-c3ccc(O)cc3)oc12 | inactive
22 | COC(=O)c1cc(O)c(O)c(O)c1 | inactive
23 | Cc1cc(C)c([C@@H]2C[C@H]3CN(C4CCCC4)C(=O)[C@]34CCCN24)c(-n2cccn2)c1 | inactive
24 | CC(=O)c1cc(NC(=O)c2ccc([N+](=O)[O-])cc2)c(=O)oc1C | inactive
25 | Cc1ccc(C(=O)N/C(=C\c2ccc(-c3cccc([N+](=O)[O-])c3)o2)C(=O)NCCCN(C)C)cc1 | inactive
26 | COc1ccc(C2NC(=O)N(CCCC(=O)O)C(C)=C2C(=O)OCc2ccccc2)cc1 (configuration not stated) | inactive
27 | COC(=O)C1=C(C)OC(N)=C(C#N)C1c1cc(OC)c(OCC(N)=O)cc1Cl (configuration not stated) | inactive
28 | CCOC(=O)C1=C(C)N=c2s/c(=C\c3cccn3C)c(=O)n2C1c1cccc(OC)c1OC (configuration not stated) | inactive
29 | COc1ccccc1/C=C1\SC(=S)N(CCC(=O)Nc2cc(C)on2)C1=O | inactive
30 | COC(=O)CCC(=O)OC1(C)C(=O)C2=CN(Cc3ccccc3)C(c3ccc(OC)cc3)=CC2=C(Br)C1=O (configuration not stated) | inactive
31 | N#C/C(C(N)=O)=C1/CCc2ccccc2N1 | inactive
32 | COc1ccc(NC(=O)c2cccs2)cn1 | inactive
33 | Cc1c(CN2CCCC(C)C2)c(O)n(CCO)c(=O)c1C#N (configuration not stated) | inactive
34 | CCOc1cc(/C=N/Nc2nc(=O)[nH]nc2C)ccc1O | inactive
35 | COc1ccc(N(CCC#N)C(=O)/C(C#N)=C/c2cccs2)cc1 | inactive
36 | Cc1cccc(CS(=O)(=O)c2nnc([C@H](Cc3ccccc3)NC(=O)OC(C)(C)C)o2)c1 | inactive
37 | CCN(CC)c1ccc(N=Cc2c(O)n(-c3ccccc3C)c(=O)[nH]c2=O)cc1 | inactive
38 | CCOC(=O)Cc1csc(NC(=O)c2sc3nc4ccc(CC)cc4cc3c2N)n1 | inactive
39 | CCCNc1nc2ccccc2n2c(C)nnc12 | inactive

Row | SMILES | activity change, negative = inhibition
40 | CCOc1ccc(/C=C/C(=O)c2ccccc2)cc1 | inactive
41 | Cc1nc2nc(-c3ccc(Cl)cc3)cn2nc1C | inactive
42 | O=C(NC(=S)NNS(=O)(=O)c1ccccc1)c1ccc([N+](=O)[O-])cc1 | inactive
43 | CS(=O)(=O)c1nsc2nc(=O)c(/C=C3\C=Nc4ccccc43)c(N)n12 | inactive
44 | Fc1ccc(N=c2ssnc2Cl)c(F)c1 | inactive
45 | COc1ccc2c(c1OC)CN1CCc3cc4c(cc3[C@@H]1[C@@H]2O)OCO4 | inactive
46 | O=[N+]([O-])c1ccc(-c2cn3nc(-c4ccccc4)c(-c4ccccc4)nc3n2)cc1 | inactive
47 | O=C(NNC(=O)c1ccc(O)c(Cl)c1)c1cccc(S(=O)(=O)N2CCOCC2)c1 | inactive
48 | CC1(C)CC(=O)C2=C(C1)Nc1cc(Cl)ccc1S2 | inactive
49 | Cc1ccc(C(=O)N/N=C\c2cc(Br)c(Br)o2)cn1 | inactive
50 | COc1ccc(C(=O)N2C(=S)NC(=O)/C2=C\c2ccc(C)cc2)cc1 | inactive
51 | Nc1ccc2nc[nH]c2c1 | inactive
52 | O=[N+]([O-])c1ccc(/C=N/n2c(CO)nc3ccccc32)s1 | inactive
53 | Nc1c(C(=O)Nc2cccc(Cl)c2Cl)sc2nc(-c3cccnc3)ccc12 | inactive
54 | COc1ccc2nc3ccccc3nc2c1N | inactive
55 | CCc1ccc(N2C(=O)NC(=O)/C(=C/c3cccn3CCOc3ccc(C(C)CC)cc3)C2=O)cc1 (configuration not stated) | inactive
56 | CC1(OC(=O)c2ccc(Cl)nc2)C(=O)C=C2C=C(c3ccc(C#N)cc3)OC=C2C1=O (configuration not stated) | inactive
57 | Nc1ccc2oc(-c3ccccc3Cl)cc(=O)c2c1O | inactive
58 | O=Nc1[nH]c(=O)c(/C=C(\O)c2ccccc2)nc1NO | inactive
59 | Cc1c(N=Cc2cc3c(cc2[N+](=O)[O-])OCO3)cccc1[N+](=O)[O-] | inactive
60 | O=C(CSc1nnc(COc2ccccc2)o1)Nc1nccs1 | inactive
61 | COc1ccc(NS(=O)(=O)c2cccc(C(=O)NNC(=O)c3cc(S(N)(=O)=O)ccc3OC)c2)cc1 | inactive
62 | COc1ccc(/C=C2\CCCc3c2nc2ccc(C)cc2c3C(=O)O)cc1O | inactive
63 | O=C(O)/C=C/C(=O)NNc1ncnc2ccccc12 | inactive
64 | Cc1cc2n(n1)C(c1c[nH]c3ccccc13)Nc1ccccc1-2 (configuration not stated) | inactive
65 | COc1ccc(CC(=O)NNc2ncnc3c2cnn3C)cc1 | inactive
66 | COC(=O)c1ccc(-c2ccc(C(c3c(C)[nH][nH]c3=O)c3c(C)[nH][nH]c3=O)o2)cc1 | inactive

Row | SMILES | activity change, negative = inhibition
67 | COc1ccccc1N1C(=O)S/C(=C\c2cccs2)C1=O | inactive
68 | COc1cc(C(=O)NC(=S)NNC(=O)c2cnccn2)cc(OC)c1OC | inactive
69 | CC(C)N1CCc2c(sc(NC(=O)c3ccc(S(=O)(=O)N4CCCCC4C)cc3)c2C(N)=O)C1 (configuration not stated) | inactive
70 | CCN(CC)CCOc1ccc2c(c1)C(=NNC(=O)c1ccccn1)c1cc(OCCN(CC)CC)ccc1-2 | inactive
71 | O=C(/C=C(\O)c1ccccc1)C(=O)NNC(=O)c1ccccc1 | inactive
72 | N#Cc1cc2c(=O)n3ccccc3nc2n(CCCN2CCOCC2)c1=O | inactive
73 | O=C(O)c1ccc2cccnc2c1O | inactive
74 | O=c1[nH]c2ccccc2n1Cc1ccc(Cl)cc1 | inactive
75 | Oc1ccc(Br)cc1C=Nc1cccn2cc(-c3ccccc3)nc12 | inactive
76 | CCN1C(=O)c2cccc3c(NC(=O)C4CCCCC4)ccc1c23 | inactive
77 | Brc1ccc(-c2cn3nc4c(nc3n2)CCCC4)cc1 | inactive
78 | Cc1nnc(SCc2nc3sc4c(c3c(=O)[nH]2)CCCC4)n(N)c1=O | inactive
79 | COC(=O)/C(C#N)=C/c1c(-c2ccccc2)nc2n1CCS2 | inactive
80 | Cn1nc(C(=O)NNC(=O)c2ccc(Cl)cc2)ccc1=O | inactive
81 | CC[N+](C)(CC)CCCOC(=O)C(O)(c1ccccc1)C1CCCCC1 (configuration not stated) | inactive
82 | Cc1cc(/C=C2\SC(=S)N(Cc3ccco3)C2=O)c(C)n1-c1ccccc1 | inactive
83 | Cc1nc2ccc3nc(NC(=O)c4ccc5c(c4)OCCO5)sc3c2s1 | inactive
84 | CC(=Nc1ccc(C)cc1C)c1sc2ccccc2c1O | inactive
85 | CC(=O)c1cc(NC(=O)c2ccc(C)cc2)c(=O)oc1C | inactive
86 | O=C(O)Cc1c[nH]c2cccc(O)c12 | inactive
87 | CC(=O)O[C@@H]1[C@@H](O)[C@@H](O)[C@H](Oc2c(-c3ccc(O)cc3)oc3c(CC=C(C)C)c(O)cc(O)c3c2=O)O[C@H]1C | inactive
88 | CCN1CCN(Cc2c(C(=O)N/N=C(\C)c3ccc(Cl)c(Cl)c3)nnn2-c2nonc2N)CC1 | inactive
89 | O=C(CCc1ccccc1)N/N=C\c1cc2c(cc1Br)OCO2 | inactive
90 | Cn1c(O)c(N=Nc2ccc(F)cc2)c2ccccc21 | inactive
91 | NC1=NC(=O)/C(=C\c2ccc(O)c([N+](=O)[O-])c2)S1 | inactive
92 | CCS(=O)(=O)C1=NN2C(=N)/C(=C\c3ccc(SCc4ccco4)o3)C(=O)N=C2S1 | inactive
